The results in this text go back to US8653048B2 (Sanlugen Pharmatech Ltd., priority 2009, dated 2014).

Series [1] deals with HepG2 tumor transplanted in nude mice. Kind of series: HepG2 tumor transplanted in nude mice, intravenous administration. Type of series: in vivo, BALB/C nude mice. The note with it: for weight loss rate: HepG2 nude mice; for effect on growth of HepG2 tumor (growth curve and tumor weight), in words: i.v., SL-01 10, 20, 40 mg/kg, Gem group. On the procedure: 1. […] The drugs were packaged and stored at −20° C.
The treatment starting day was the first day (d0). […] The tumor tissues were removed and weighed. The inhibition rate of tumor growth was calculated.
4.2 The low, middle and high dosage of SL-01 in the treatment for HepG2 liver cancer cell line tumor growth transplanted in nude mice are 10, 20 and 40 mg/kg, respectively.

Series [2] concerns NCI-H460: a human lung cancer cell line. Description: MTT analytical method, NCI-H460 cells. The settings on record: 72 h. It is filed as cell-based. From the text:
(§1) MTT analytical method was used to test the prodrugs for various tumor cells.
(§2) • 1) Cell lines: NCI-H460, A549, LOVO, HT-29, MDA-MB-231, SGC7901, HepG2 or BEL-7402 cell lines. Culture: adherent culturing in D-MEM (Hyclone, Inc.) containing 10% fetal calf serum. The initial cell concentration was about 3×10^5 /mL. The cell was passaged by 1:3 dilution in every 2-3 days. On the day before the test, the cell was passaged by 1:2 dilution, the cell concentration for the test was 5-10×10^5 /mL. • 2) Dissolution and dilution of compounds: according to the weight and molecular weight of the drugs provided, 100-200 μL of DMSO was added. Then normal saline was added to make the final diluted concentration of the drugs be 5 mM (Note that the final concentration of DMSO should not be more than 10%). • 3) D-MEM or RPMI 1640 cell culture medium, Gibco, Inc. • 4) Fetal calf serum Hyclone, Inc. • 5) Cell dissociation buffer, 0.25% Trypsin+0.02% EDTA. • 6) MTT solution, MTT Powder (Sigma) were dissolved in PBS buffer solution to make a solution of 5 mg/mL. The solution was filtered by a 0.22 μm micropore membrane and stored at −20° C. • 7) PBS buffer solution. • 8) 10% acidified SDS, 0.01N HCl. • 9) Centrifuge tubes, haustorial tubes etc. (BD, Inc.); 96-well plates (Costatr, Inc.) Procedures: • 1) Cell inoculation: Cells grown for 24 hours after passage, which cells were in good growth state, were used. The cells were harvested by the routine method. The cell concentration was adjust with a fresh culture solution to 2×10^5/mL (for adherent cells)-3×10^5/mL (for suspension cells). The adherent cells were inoculated at 100 μL/well and then cultivated in an incubator with 5% CO2 at 37° C. for 24 h. Thereafter the used culture solution was removed and 95 μL/well of fresh culture solution was added. The suspension cells were inoculated at 95 μL/well directly. • 2) Drugs treatment: 9 concentration grades were designed for every drug, and every concentration had 3 wells. The control group had 5 wells. The control group was tested simultaneously in each test. The final concentrations of a drug added were […], and 5 μL normal saline was added to the control group. • 3) Cell culture and detection: the cells were cultured in an incubator with 5% CO2 at 37° C. for 72 h after the drug was added, then 10 μL MTT was added to each well and the culture was continued for 4 h. 100 μL of 10% SDS (containing 0.01N HCl) was added to each well. After 24 h, the absorbance (A) of each well was determined by Bio-rad 680 ELISA with the detection wavelength of 570 nm and the reference wavelength of 630 nm. Calculation:
(§3) First, the absorbance (A) of each well was averaged (removing any data with big difference). […] A0 was the mean absorbance of the control wells. The effect curve of the drug concentration was drawn using EXCEL software and the drug concentration for 50% cell survival was calculated according to an appropriate computing methods.
A general note: Formazan colour is commonly taken as a measure of viable cells.

The subject of series [3] is HT29: a human colon cancer cell line. Description: MTT analytical method, HT29 cells. Type of series: cell-based. The note with it: HT-29, 72 h.
Source text: as §1, §2, §3

For series [4], the system named is HepG2: a human liver cancer cell line. Kind of series: MTT analytical method, HepG2 cells. Type of series: cell-based. The settings on record: 72 h.
Source text: as §1, §2, §3

Series [5] is described as follows: Dissolution in water (description of material). Type of series: physicochemical. The settings on record: white powder.
Series [6] is described as follows: Physiological stability in PBS (pH=7.4) (HPLC). The settings on record: for stability in PBS (pH=7.4) (in words): 0-24 h; for HPLC peak area of drug: PBS (pH = 7.4). It is filed as physicochemical.
The subject of series [7] is Bel7402: a human liver cancer cell line. Description: MTT analytical method, Bel7402 cells. Type of series: cell-based. The note with it: Bel-7402, 72 h.
Source text: as §1, §2, §3

Series [8] deals with MDA-MB-231: a human breast cancer line. Description: MTT analytical method, MDA-MB-231 cells. Type of series: cell-based. The note with it: MDA-MB-231, MTT, 72 h.
Source text: as §1, §2, §3

Series [9] has as its system NCI-H460 tumor transplanted in nude mice. Description: NCI-H460 tumor transplanted in nude mice, intravenous administration. The note with it: for weight loss rate: NCI-H460 nude mice; for effect on NCI-H460 tumor (growth curve and tumor weight), in words: i.v. every three days x4, SL-01 5, 10, 20 mg/Kg, GEM 10 mg/Kg.
Description: The highest concentrations of both were 10 mg/mL and 240 mg/mL, respectively. […] Assuming that each mouse weighed 20 g and 0.1 mL of drug solution was administered, then the dosage of SL-01 at 5, 10 or 20 mg/kg needed drug concentrations of 1, 2, 4 mg/mL, respectively.
Cell lines and cultivation: the NCI-H460 lung cancer cell line, the HepG2 liver cancer cell line, or the HT29 colon cancer cell line were cultured by adherent culturing in D-MEM (Gibco, Inc.) containing 10% fetal calf serum. These cells were passaged once by a dilution of 1:3 in every 2-3 days. The cells were collected when they were passaged to grow into 25 of 10 cm culture dishes.
3.1 The establishment of a model of transplanted tumors in nude mice: Well-grown NCI-H460 cells, HT29 cells or HepG2 cells were collected (25 of 10 cm culture dishes). The cell concentration was adjusted to 1.5×10^7/mL with serum-free DMEM. 200 μL cell suspension was inoculated into the right back of 6 weeks old male BALB/C nude mice by subcutaneous injection using a 1 mL syringe.
The treatment starting day was the first day (d0). The corresponding drugs were injected intravenously to the tail vein every three days. The administration volume to each mouse was adjusted according to its body weight. A total of four administrations (d0, d3, d6, d9) were applied. The long and short tumor pathlines were measured with a slide caliper at the beginning of the administration and every 3 days thereafter. The tumor volume V was calculated (V=½ab^2, a is the tumor long pathline, b is the tumor short pathline). The growth curve was drawn with the time as the horizontal axis, and tumor volume as the vertical axis. The experiment was terminated when the tumor size of the control group reached 3000 mm^3. Blood samples were taken from the eyeball and thereafter the nude mice were euthanized by back neck vertebra cervical dislocation. The tumor tissues were removed and weighed. The inhibition rate of tumor growth was calculated.

On to `CCCCCCCCCCCCOC(=O)c1nccnc1C(=O)Nc1ccn([C@@H]2O[C@H](CO)[C@@H](O)C2(F)F)c(=O)n1` [Compound 4, Dodecyl-3-((1-((2R,4R,5R)-3,3-difluoro-4-hydroxy-5-(hydroxymethyl)-tetrahydrofuran-2-yl)-2-oxo-1,2-dihydropyrimidin-4-yl)carbamoyl)pyrazine-2-carboxylate], for which the weight loss rate worked out at 3.5% in [1] (SL-01 high dosage 40 mg/kg i.v.), 11.6% in series [1] (SL-01 low dosage 10 mg/kg i.v.), 14% in series [1] (SL-01 middle dosage 20 mg/kg i.v.) and 7% in series [9] (SL-01 high dose group 20 mg/Kg i.v.). Further, the “effect on growth of HepG2 tumor (growth curve and tumor weight), in words” value in series [1] is “neither SL-01 nor gemcitabine has shown an obvious inhibitory effect”. For the same compound, the IC50 was under 2 µM in [2]; 2 µM in series [3]; 6 µM in [4]; 8 µM in series [7]; over 16 µM in [8]. Also, the “solubility in water, in words” value in series [5] is “cannot be dissolved in water well”. Further, the “stability in PBS (pH=7.4) (in words)” value in series [6] is “stable”. Further, the “HPLC peak area of drug” value turned out to be 399795.688 in series [6] (0 min); 379856.688 in series [6] (1 h); 397725 in [6] (2 h); 373725.406 in series [6] (4 h); 360109.813 in series [6] (6 h); 362068.688 in series [6] (8 h). The “HPLC peak area of drug” value amounted to 386125.688 in series [6] (12 h) and 387541.688 in series [6] (24 h). For the same compound, in [9], the “effect on NCI-H460 tumor (growth curve and tumor weight), in words” value was “inhibitory effect”.
`Nc1ccn([C@@H]2O[C@H](CO)[C@@H](O)C2(F)F)c(=O)n1` [Gemcitabine, gemcitabine, reference compound]: the weight loss rate stood at 9% in series [1] (gemcitabine positive control) and 14% in series [9] (gemcitabine positive control 10 mg/Kg i.v.). Also, in series [1], the “effect on growth of HepG2 tumor (growth curve and tumor weight), in words” value is “neither SL-01 nor gemcitabine has shown an obvious inhibitory effect”. Also, the IC50 in series [2] was under 1 µM; in series [3] it was 7 µM; in [4] it was under 1 µM; in [7], 4 µM; in series [8], under 1 µM. Moreover, in series [5], the “solubility in water, in words” value is reported as “can be easily dissolved in water”. In series [6], the “stability in PBS (pH=7.4) (in words)” value is recorded as “stable”. For the same compound, the “HPLC peak area of drug” value in series [6] (0 min) is listed as 657583.875; in series [6] (1 h), 646932.375; in [6] (2 h), 651326.375; in series [6] (4 h), 647537.813; in series [6] (6 h), 618724; in [6] (8 h), 635026.875. The “HPLC peak area of drug” value in series [6] (12 h) is given as 600425.125; in series [6] (24 h) it was 603669.813. Moreover, the “effect on NCI-H460 tumor (growth curve and tumor weight), in words” value in series [9] was “inhibitory effect”.

The IC50 is the midpoint of a concentration-inhibition curve. A higher IC50 goes with weaker potency in that assay.
